The record followed here is ChEMBL document CHEMBL3272295, “Drugs derived from cannabinoids. 5. delta6a,10a-Tetrahydrocannabinol and heterocyclic analogs containing aromatic side chains” (J Med Chem, 1976).

Series [1] has as its system Mus musculus. As to the kind of experiment: Analgesic activity in po dosed mouse assessed as inhibition of acetic acid-induced writhing administered 30 mins prior to acetic acid challenge measured after 5 mins for 20 mins. The class given is functional.
For series [2], the system named is Rattus norvegicus. Kind of series: Analgesic activity in po dosed Sprague-Dawley rat after 15 to 90 mins by tail flick test. The class given is functional.
The nature of series [3]: Acute toxicity in po dosed mouse. The class given is organism-based. Conditions: in vivo.
Series [4] has as its system Mus musculus. As to the kind of experiment: Antianxiety activity in albino BALB/cJ mouse assessed as reduction in footshock-induced fighting behavior at 10 mg/kg, po after 30 to 90 mins. The class given is functional. Also noted: scale not given: the % may be the effect or the level left.
Series [5] relates to Rattus norvegicus. As to the kind of experiment: Antianxiety activity in Long-Evans rat assessed as reduction in motor activity at 5 mg/kg, po after 2 hrs relative to vehicle-treated control. The class given is functional. Also on record: scale not given: the % may be the effect or the level left.
The test system of series [6] is Rattus norvegicus. Kind of series: Antipsychotic activity in rat assessed as reduction of methamphetamine-induced hyperactivity at 5 mg/kg, po administered prior to methamphetamine challenge relative to vehicle-treated control. The class given is functional. Also noted: scale not given: the % may be the effect or the level left.
Series [7] deals with Rattus norvegicus. As to the kind of experiment: Antianxiety activity in Long-Evans rat assessed as reduction in motor activity at 10 mg/kg, po after 2 hrs relative to vehicle-treated control. The series is classed as functional. Also noted: scale not given: the % may be the effect or the level left.

The source made the active and inactive calls. The rule behind the calls is not given here.

For the compound `CC(CCCc1ccc(F)cc1)c1cc(O)c2c(c1)OC(C)(C)C1=C2CN(Cc2ccccc2)CC1` (stereo not given), the inhibition result with Mus musculus [1] was “inactive”. In the series on Rattus norvegicus [2], the outcome was inactive.
In the case of `CC(CCCCc1ccc(F)cc1)c1cc(O)c2c(c1)OC(C)(C)C1=C2CN(Cc2ccccc2)CC1` (stereo not given), in the series with Mus musculus [1], the inhibition entry is “inactive”. For the same compound, the outcome with Rattus norvegicus [2] was inactive.
In the case of `CC(CCc1ccc(F)cc1)c1cc(O)c2c(c1)OC(C)(C)C1=C2CNCC1` (stereo not given), in the series on Mus musculus [1], the inhibition result is “inactive”. For the same compound, the result in the series with Rattus norvegicus [2] was inactive.
Take `CC1CCc2c(c3c(O)cc(C(C)C(C)CCc4ccncc4)cc3oc2=O)C1` (stereo not given): the inhibition result in the series on Mus musculus [1] was “inactive”. For the same compound, in the series with Rattus norvegicus [2], the outcome was inactive.
Turning to `CC1CCc2c(c3c(O)cc(C(C)CCCCc4ccc(F)cc4)cc3oc2=O)C1` (stereo not given), in the series with Mus musculus [1], the inhibition result was “inactive”. Further, in the series on Rattus norvegicus [2], the result was inactive.
In turn, `C#CCN1CCC2=C(C1)c1c(OC(=O)CCCN3CCOCC3)cc(C(C)CCCc3ccc(F)cc3)cc1OC2(C)C.Cl.Cl` (stereo not given) showed an LD50 in series [3] of no less than 1000 mg/kg. In addition, the values for the ED50 in the series on Mus musculus [1] and with Rattus norvegicus [2] were 9 mg/kg and 5 mg/kg, respectively. In addition, the values for the Activity in the series on Mus musculus [4], with Rattus norvegicus [5] and in the series on Rattus norvegicus [6] were 0%, 48% and 33%, respectively.
Take `CCCCCc1cc(O)c2c(c1)OC(C)(C)C1=C2CN(Cc2ccccc2)CC1`: in the series with Mus musculus [1], the inhibition result was “inactive”. In addition, the result in the series with Rattus norvegicus [2] was inactive.
Regarding `CC(CCCc1ccc(F)cc1)c1cc(O)c2c3c(c(=O)oc2c1)CCN(Cc1ccccc1)C3` (stereo not given), in the series with Mus musculus [1], the inhibition result was “inactive”. In addition, the outcome in the series on Rattus norvegicus [2] was inactive.
Regarding `CC(CCc1ccc(F)cc1)c1cc(O)c2c3c(c(=O)oc2c1)CCN(Cc1ccccc1)C3` (stereo not given), the inhibition entry in the series on Mus musculus [1] was “inactive”. Further, in the series with Rattus norvegicus [2], the result was inactive.
On to `CC(CCCc1ccc(F)cc1)c1cc(O)c2c3c(c(=O)oc2c1)SCC3C` (stereo not given), for which, in the series on Mus musculus [1], the inhibition result was “inactive”. The result with Rattus norvegicus [2] was inactive.
As to `CC(CCCCc1ccc(F)cc1)c1cc(O)c2c3c(c(=O)oc2c1)CCN(Cc1ccccc1)C3` (stereo not given), the inhibition result in the series on Mus musculus [1] was “inactive”. In addition, in the series with Rattus norvegicus [2], the result was inactive.
On to `CC1CCc2c(c3c(O)cc(C(C)CCCc4ccccc4)cc3oc2=O)C1` (stereo not given), for which the inhibition entry in the series with Mus musculus [1] is “inactive”. Also, in the series with Rattus norvegicus [2], the outcome was inactive.
`C#CCN1CCC2=C(C1)c1c(OC(=O)C(C)CCN3CCOCC3)cc(C(C)CCCc3ccc(F)cc3)cc1OC2(C)C.Cl` (stereo not given): the LD50 in series [3] is no less than 1000 mg/kg. For the same compound, the ED50 in the series with Mus musculus [1] was 7.2 mg/kg; in the series with Rattus norvegicus [2], 7 mg/kg. Further, the Activity is given as 26% with Mus musculus [4], 71% in the series with Rattus norvegicus [5] and 24% in the series with Rattus norvegicus [6].
As for `CC(CCCc1ccc(F)cc1)c1cc(O)c2c3c(c(=O)oc2c1)CCC3` (stereo not given), in the series on Mus musculus [1], the inhibition entry was “inactive”. Also, the result in the series with Rattus norvegicus [2] was inactive.
For the compound `Cc1ccc(CCCC(C)c2cc(O)c3c4c(c(=O)oc3c2)CCN(Cc2ccccc2)C4)cc1` (stereo not given), the inhibition entry with Mus musculus [1] was “inactive”. Moreover, in the series with Rattus norvegicus [2], the result was inactive.
On to `CC(CCc1ccc(F)cc1)C(C)c1cc(O)c2c3c(c(=O)oc2c1)CCN(Cc1ccccc1)C3` (stereo not given), for which the inhibition result in the series with Mus musculus [1] is “inactive”. Moreover, the result in the series on Rattus norvegicus [2] was inactive.
`CC1CCc2c(c3c(O)cc(C(C)CCCc4ccc(F)cc4)cc3oc2=O)C1` (stereo not given): in the series on Mus musculus [1], the inhibition result was “inactive”. For the same compound, the outcome with Rattus norvegicus [2] was inactive.
With `CC(CCCCc1ccc(F)cc1)c1cc(O)c2c(c1)OC(C)(C)C1=C2CNCC1` (stereo not given), the inhibition result in the series on Mus musculus [1] is “inactive”. For the same compound, in the series on Rattus norvegicus [2], the outcome was inactive.
`CC1CCc2c(c3c(O)cc(C(C)CCc4ccc(F)cc4)cc3oc2=O)C1` (stereo not given): the inhibition result in the series on Mus musculus [1] is “inactive”. In addition, the result in the series on Rattus norvegicus [2] was inactive.
For `CC1CCc2c(c3c(O)cc(C(C)C(C)CCc4ccc(F)cc4)cc3oc2=O)C1` (stereo not given), the inhibition entry in the series on Mus musculus [1] was “inactive”. Besides, the result in the series with Rattus norvegicus [2] was inactive.
Take `CC1CCc2c(c3c(O)cc(C(C)C(C)Cc4ccc(F)cc4)cc3oc2=O)C1` (stereo not given): the inhibition result in the series with Mus musculus [1] was “inactive”. In the series with Rattus norvegicus [2], the result was inactive.
As for `CC(CCCc1ccc(F)cc1)c1cc(O)c2c(c1)OC(C)(C)C1=C2CNCC1` (stereo not given), the inhibition entry in the series on Mus musculus [1] is “inactive”. Also, the result in the series on Rattus norvegicus [2] was inactive.
Regarding `CC1CCc2c(c3c(O)cc(CCCCCc4ccc(F)cc4)cc3oc2=O)C1` (stereo not given), in the series on Mus musculus [1], the inhibition result was “inactive”. The result in the series with Rattus norvegicus [2] was inactive.
As for `CC1CCc2c(c3c(O)cc(C(C)CCCN(C)C)cc3oc2=O)C1` (stereo not given), the inhibition entry in the series on Mus musculus [1] is “inactive”. Besides, the outcome in the series with Rattus norvegicus [2] was inactive.
On to `CC(CCc1ccc(F)cc1)c1cc(O)c2c(c1)OC(C)(C)C1=C2CN(Cc2ccccc2)CC1` (stereo not given), for which, in the series on Mus musculus [1], the inhibition result was “inactive”. Besides, in the series on Rattus norvegicus [2], the result was inactive.
With `Cc1ccc(CCCC(C)c2cc(O)c3c(c2)OC(C)(C)C2=C3CN(Cc3ccccc3)CC2)cc1` (stereo not given), in the series with Mus musculus [1], the inhibition result was “inactive”. In addition, the result in the series with Rattus norvegicus [2] was inactive.
With `Cc1ccc(CCCC(C)c2cc(O)c3c4c(c(=O)oc3c2)CCC(C)C4)cc1` (stereo not given), in the series on Mus musculus [1], the inhibition entry is “inactive”. Further, the result in the series on Rattus norvegicus [2] was inactive.
With `CC(CCCc1ccc(F)cc1)C(C)c1cc(O)c2c(c1)OC(C)(C)C1=C2CNCC1` (stereo not given), in the series on Mus musculus [1], the inhibition result is “inactive”. Moreover, the outcome in the series with Rattus norvegicus [2] was inactive.
Regarding `CCCCCc1cc(O)c2c(c1)OC(C)(C)C1=C2CNCC1`, the inhibition entry in the series with Mus musculus [1] was “inactive”. Besides, the result in the series with Rattus norvegicus [2] was inactive.
Take `CC(CCCc1ccc(F)cc1)C(C)c1cc(O)c2c(c1)OC(C)(C)C1=C2CN(Cc2ccccc2)CC1` (stereo not given): the inhibition entry in the series with Mus musculus [1] was “inactive”. The result with Rattus norvegicus [2] was inactive.
Regarding `CC(CCc1ccc(F)cc1)C(C)c1cc(O)c2c(c1)OC(C)(C)C1=C2CNCC1` (stereo not given), the inhibition result with Mus musculus [1] was “inactive”. In the series with Rattus norvegicus [2], the outcome was inactive.
Consider `CC(CCc1ccc(F)cc1)C(C)c1cc(O)c2c(c1)OC(C)(C)C1=C2CN(Cc2ccccc2)CC1` (stereo not given), for which the inhibition entry in the series on Mus musculus [1] is “inactive”. The result in the series with Rattus norvegicus [2] was inactive.
With `CC(CCCc1ccc(F)cc1)c1cc(O)c2c3c(c(=O)oc2c1)N1CCC3CC1` (stereo not given), the inhibition result in the series on Mus musculus [1] is “inactive”. In the series with Rattus norvegicus [2], the outcome was inactive.
`Cc1ccc(CCCC(C)c2cc(O)c3c(c2)OC(C)(C)C2=C3CNCC2)cc1` (stereo not given): the inhibition result in the series on Mus musculus [1] is “inactive”. Further, the result in the series on Rattus norvegicus [2] was inactive.
For `CCCCCc1cc(O)c2c3c(c(=O)oc2c1)CCN(Cc1ccccc1)C3`, in the series with Mus musculus [1], the inhibition entry is “inactive”. The outcome in the series on Rattus norvegicus [2] was inactive.
On to `CC1CCc2c(c3c(O)cc(C(C)C(C)CCCc4ccc(F)cc4)cc3oc2=O)C1` (stereo not given), for which the inhibition result with Mus musculus [1] is “inactive”. Besides, in the series with Rattus norvegicus [2], the outcome was inactive.
On to `CNC1=Nc2ccc(Cl)cc2C(c2ccccc2)=[N+]([O-])C1.Cl` [CHLORDIAZEPOXIDE HYDROCHLORIDE], for which the Activity in the series on Mus musculus [4] was 53%; in the series with Rattus norvegicus [5], 26%; with Rattus norvegicus [7], 54%.
For `CC(CCCc1ccc(F)cc1)C(C)c1cc(O)c2c3c(c(=O)oc2c1)CCN(Cc1ccccc1)C3` (stereo not given), the inhibition result in the series on Mus musculus [1] is “inactive”. For the same compound, the outcome in the series on Rattus norvegicus [2] was inactive.
